One block for each compound: values may come before it.
Tests used:
[1] = Drug metabolism in rat liver microsomes at 10 uM; type: ADME, Microsome; details: read-out: Drug metabolism
[2] = Half life in Sprague-Dawley rat at 1 mg/kg, iv; type: ADME, organism-based; design: dose 1 mg/kg, route intravenous; details: in vivo
[3] = Oral bioavailability in Sprague-Dawley rat at 5 mg/kg; type: ADME, organism-based; details: in vivo
[4] = Volume of distribution at steady state in Sprague-Dawley rat at 1 mg/kg, iv; type: ADME, organism-based; design: dose 1 mg/kg, route intravenous; details: in vivo, read-out: Vdss
[5] = Plasma clearance in Sprague-Dawley rat at 1 mg/kg, iv; type: ADME, organism-based; design: dose 1 mg/kg, route intravenous
[6] = target: Metabotropic glutamate receptor 5 (Homo sapiens, UniProt P41594); experiment: Antagonist activity at mGlu5 receptor; type: functional
[7] = Intrinsic clearance in Wistar rat; type: ADME, organism-based; details: in vivo
[8] = Volume of distribution at steady state in Wistar rat; type: ADME, organism-based; details: in vivo, read-out: Vdss
[9] = in vivo; details: Wistar, rat
[10] = in vivo; details: Wistar, rat, po
Description: Oral bioavailability in Wistar rat

[11] = physchem
Description: Dissociation constant, pKa of the compound

Sequence of Metabotropic glutamate receptor 5 (P41594 whole entry): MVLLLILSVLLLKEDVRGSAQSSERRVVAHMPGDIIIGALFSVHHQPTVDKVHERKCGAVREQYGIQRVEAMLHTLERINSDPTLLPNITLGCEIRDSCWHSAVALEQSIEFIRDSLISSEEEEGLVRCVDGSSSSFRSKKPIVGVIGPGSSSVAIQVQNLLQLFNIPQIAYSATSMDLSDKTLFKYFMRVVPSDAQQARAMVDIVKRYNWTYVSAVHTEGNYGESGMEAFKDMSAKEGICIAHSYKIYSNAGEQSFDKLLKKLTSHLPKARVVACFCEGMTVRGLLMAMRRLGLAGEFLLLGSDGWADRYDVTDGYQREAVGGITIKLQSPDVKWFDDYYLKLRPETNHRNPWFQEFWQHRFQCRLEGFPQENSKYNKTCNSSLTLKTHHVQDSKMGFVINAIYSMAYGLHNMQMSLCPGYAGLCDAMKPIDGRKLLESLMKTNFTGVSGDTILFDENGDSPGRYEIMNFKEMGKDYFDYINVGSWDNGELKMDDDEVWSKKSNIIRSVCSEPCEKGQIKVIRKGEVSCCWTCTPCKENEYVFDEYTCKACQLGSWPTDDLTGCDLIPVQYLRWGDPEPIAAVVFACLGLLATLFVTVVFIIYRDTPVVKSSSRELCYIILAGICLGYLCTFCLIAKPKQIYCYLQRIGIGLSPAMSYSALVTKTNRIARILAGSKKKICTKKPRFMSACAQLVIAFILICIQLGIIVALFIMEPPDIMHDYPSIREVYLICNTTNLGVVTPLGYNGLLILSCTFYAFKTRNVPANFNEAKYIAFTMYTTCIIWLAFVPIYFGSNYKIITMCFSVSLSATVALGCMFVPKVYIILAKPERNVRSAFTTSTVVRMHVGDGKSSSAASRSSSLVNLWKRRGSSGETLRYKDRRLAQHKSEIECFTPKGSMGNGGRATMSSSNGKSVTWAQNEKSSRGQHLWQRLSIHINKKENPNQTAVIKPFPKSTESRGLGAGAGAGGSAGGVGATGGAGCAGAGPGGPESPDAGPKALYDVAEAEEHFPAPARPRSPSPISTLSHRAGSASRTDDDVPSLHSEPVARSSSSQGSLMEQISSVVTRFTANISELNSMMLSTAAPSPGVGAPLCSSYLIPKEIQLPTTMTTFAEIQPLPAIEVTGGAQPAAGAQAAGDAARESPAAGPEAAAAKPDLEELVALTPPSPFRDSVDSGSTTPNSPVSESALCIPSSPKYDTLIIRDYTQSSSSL

Structure (SMILES): CC(C)N1CCC(Oc2ccc3[nH]c(C(=O)N4CCOCC4)cc3c2)CC1
- CLint scaled [7]: 50 mL/min/kg
- Vd [8]: 3.5 L/kg
- half-life [9]: 1.1 h

Structure (SMILES): CC(C)N1CCC(Oc2ccc3[nH]c(C(=O)N4CCC(F)(F)CC4)cc3c2)CC1
- CLint scaled [7]: 18 mL/min/kg
- Vd [8]: 6 L/kg
- bioavailability [10]: 100%

Structure (SMILES): C[C@H](C1CC1)n1cc(C#N)nc(Nc2c(Cl)cc(OC(F)F)cc2Cl)c1=O
- metabolised at 10 µM [1]: 1%

Structure (SMILES): C1CCCNCC1 [AZEPANE]
- pKa [11]: 10.9

Structure (SMILES): C1CNC1 [AZETIDINE]
- pKa [11]: 10.7

Structure (SMILES): c1cnsc1 [ISOTHIAZOLE]
- pKa [11]: -0.51

Structure (SMILES): c1cocn1 [OXAZOLE]
- pKa [11]: 0.8

Structure (SMILES): c1cnccn1 [PYRAZINE]
- pKa [11]: 0.4

Structure (SMILES): c1cn[nH]c1 [PYRAZOLE]
- pKa [11]: 2.52

Structure (SMILES): c1ccnnc1 [PYRIDAZINE]
- pKa [11]: 2.3

Continued, values first:

- metabolised at 10 µM [1]: 7%
Structure (SMILES): Cc1cn([C@H](C)C2CC2)c(=O)c(Nc2c(Cl)cc(OC(F)F)cc2Cl)n1

- half-life [2]: 1.09 h
- bioavailability [3]: 73.5%
- Vd [4]: 0.22 L/kg
- clearance [5]: 1.49 mL/min/kg
Structure (SMILES): O=C(Nc1nc(-c2ccc(F)c(C(F)(F)F)c2)ns1)c1cnc(N2CCC(C(=O)O)CC2)c(Cl)c1

- half-life [2]: 1.67 h
- bioavailability [3]: 73%
- Vd [4]: 0.34 L/kg
- clearance [5]: 2.79 mL/min/kg
Structure (SMILES): O=C(Nc1nc(-c2ccc(F)c(C(F)(F)F)c2)c(F)s1)c1cnc(N2CCC(C(=O)O)CC2)c(Cl)c1

- half-life [2]: 1.34 h
- bioavailability [3]: 66.8%
- Vd [4]: 0.83 L/kg
- clearance [5]: 6.89 mL/min/kg
Structure (SMILES): O=C(Nc1nc(-c2ccc(F)c(C(F)(F)F)c2)cs1)c1cnc(N2CCC(C(=O)O)CC2)c(Cl)c1

- Ki [6]: 111 nM
Structure (SMILES): Cc1nc(C(=O)Nc2ccc(O)c(C)n2)c(Nc2cccnc2)s1

- Ki [6]: 9 nM
Structure (SMILES): Cc1cccc(NC(=O)c2nc(C)sc2Nc2cccnc2)n1

- Ki [6]: 67 nM
Structure (SMILES): Cc1nc(C(=O)Nc2cccc(CO)n2)c(Nc2cccnc2)s1

- Ki [6]: 44 nM
Structure (SMILES): Cc1cc(NC(=O)c2nc(C)sc2Nc2cccnc2)ccn1

- Ki [6]: 81 nM
Structure (SMILES): Cc1cc(NC(=O)c2nc(C)sc2Nc2cncnc2)ccn1

- Ki [6]: 13 nM
Structure (SMILES): Cc1nc(C(=O)Nc2ccc(F)cn2)c(Nc2cccnc2)s1

- Ki [6]: 31 nM
Structure (SMILES): Cc1nc(C(=O)Nc2ccc(F)cn2)c(Nc2cncnc2)s1

- metabolised at 10 µM [1]: 4%
Structure (SMILES): C[C@@H](C1CC1)n1cc(Br)nc(Nc2c(Cl)cc(OC(F)F)cc2Cl)c1=O

- metabolised at 10 µM [1]: 20%
Structure (SMILES): C[C@@H](C1CC1)n1cc(Cl)nc(Nc2c(Cl)cc(OC(F)F)cc2Cl)c1=O

— ChEMBL document CHEMBL2169779, “Mitigating heterocycle metabolism in drug discovery” (J Med Chem, 2012)
